Data: the supplement of paper PMC11451515

What was measured:
Conditions in all cases: 48 h
[1] = system: SEM cells; experiment: cell viability relative to DMSO control; higher = less cytotoxic
Procedure, shortened: (§1)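 In 1536-well plates, 5 μl of leukemia cells were seeded per well: 500 cells/well for NOMO1 or SEM and 1000 cells/well for P12-Ichikawa. Each line had first been adapted for at least four passages in each medium. Library compounds in DMSO were pin-dosed at 11 threefold concentrations between 47 μM and 0.79 nM, and CellTiter-Glo One luminescence was read after 48 h at 37°C. Viability is a per-plate percentage relative to DMSO wells, with cell-free wells as background.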

[2] = system: NOMO1; experiment: as above
Procedure, shortened: as §1

[3] = system: P12-Ichikawa; experiment: as above
Procedure, shortened: as §1

[4] = system: SEM cells; experiment: AUC of viability dose-response curve (% viability x log10 dose units); higher = less sensitive
Procedure, shortened: (§2)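 Area under the curve was integrated by trapezoidal rule from a log-logistic fit of normalised viability, with curves exceeding full viability scaled and quality-control failures removed. The fit had four parameters over log10 doses. Viability came from CellTiter-Glo One luminescence, normalised per plate to DMSO and cell-free wells, after leukemia cells adapted to each medium (500 or 1000 cells/well, 1536-well plates) were exposed to library compounds in DMSO for 48 h at 37°C. The 11 threefold doses ran from 47 μM to 0.79 nM.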

[5] = system: NOMO1; experiment: as above
Procedure, shortened: as §2

[6] = system: P12-Ichikawa; experiment: as above
Procedure, shortened: as §2

N[S+](=O)([O-])OC[C@@H]1C[C@@H](n2ccc3c(N[C@H]4CCc5ccccc54)ncnc32)C[C@@H]1O
cell viability [%]
Conditions | [1] | [2] | [3]
HPLM + 10% dialyzed FBS, 0.000781 µM | 96.3 | 103 | 95.1
HPLM + 10% dialyzed FBS, 0.00234 µM | 98.3 | 118 | 102
HPLM + 10% dialyzed FBS, 0.00702 µM | 104 | 114 | 110
HPLM + 10% dialyzed FBS, 0.0211 µM | 94.2 | 111 | 102
HPLM + 10% dialyzed FBS, 0.0632 µM | 105 | 110 | 113
HPLM + 10% dialyzed FBS, 0.19 µM | 122 | 107 | 118
HPLM + 10% dialyzed FBS, 0.569 µM | 101 | 70.8 | 116
HPLM + 10% dialyzed FBS, 1.71 µM | 53.1 | 26.6 | 82.2
HPLM + 10% dialyzed FBS, 5.12 µM | 27.8 | 16.6 | 38.3
HPLM + 10% dialyzed FBS, 15.4 µM | 14.2 | 14.3 | 16.1
HPLM + 10% dialyzed FBS, 46.1 µM | 7.9 | 18.7 | 12.7
RPMI 5 mM glucose + 10% FBS, 0.000781 µM | 101 | 96.2 | 107
RPMI 5 mM glucose + 10% FBS, 0.00234 µM | 121 | 110 | 105
RPMI 5 mM glucose + 10% FBS, 0.00702 µM | 119 | 92.4 | 107
RPMI 5 mM glucose + 10% FBS, 0.0211 µM | 101 | 113 | 126
RPMI 5 mM glucose + 10% FBS, 0.0632 µM | 101 | 118 | 108
RPMI 5 mM glucose + 10% FBS, 0.19 µM | 117 | 92.6 | 120
RPMI 5 mM glucose + 10% FBS, 0.569 µM | 113 | 57.7 | 116
RPMI 5 mM glucose + 10% FBS, 1.71 µM | 48.4 | 12.4 | 61.5
RPMI 5 mM glucose + 10% FBS, 5.12 µM | 24.5 | 10.8 | 31.2
RPMI 5 mM glucose + 10% FBS, 15.4 µM | 10.3 | 8.04 | 9.99
RPMI 5 mM glucose + 10% FBS, 46.1 µM | 8.49 | 8.01 | 8.16
RPMI 5 mM glucose + 10% dialyzed FBS, 0.000781 µM | 90.8 | 111 | 97.4
RPMI 5 mM glucose + 10% dialyzed FBS, 0.00234 µM | 95.4 | 97.4 | 111
RPMI 5 mM glucose + 10% dialyzed FBS, 0.00702 µM | 95.7 | 104 | 106
RPMI 5 mM glucose + 10% dialyzed FBS, 0.0211 µM | 92.1 | 104 | 110
RPMI 5 mM glucose + 10% dialyzed FBS, 0.0632 µM | 97.3 | 121 | 98.2
RPMI 5 mM glucose + 10% dialyzed FBS, 0.19 µM | 111 | 103 | 106
RPMI 5 mM glucose + 10% dialyzed FBS, 0.569 µM | 103 | 59.8 | 100
RPMI 5 mM glucose + 10% dialyzed FBS, 1.71 µM | 35.8 | 26.7 | 54.1
RPMI 5 mM glucose + 10% dialyzed FBS, 5.12 µM | 23.8 | 18.5 | 34.4
RPMI 5 mM glucose + 10% dialyzed FBS, 15.4 µM | 12.1 | 13 | 12.3
RPMI 5 mM glucose + 10% dialyzed FBS, 46.1 µM | 8.74 | 10.8 | 11.2

AUC of viability dose-response curve
Conditions | [4] | [5] | [6]
HPLM + 10% dialyzed FBS | 352 | 319 | 373
RPMI 5 mM glucose + 10% FBS | 346 | 300 | 352
RPMI 5 mM glucose + 10% dialyzed FBS | 339 | 313 | 352
